For experiment [1], the system named is T-cells of hTg immunized mice. Kind of experiment: CFSE T-cell proliferation of splenocytes from hTg immunized NOD-DR3 mice, compound added ex vivo. The class given is cell-based, mouse. The settings on record: final concentration 0.001 mM. The method, then:
Female NOD-DR3 mice, 4-6 weeks old, were injected subcutaneously with human thyroglobulin (hTg) (Cell Sciences, Canton, Mass.) in complete Freund adjuvant (CFA) (Sigma) to induce EAT. Mice were immunized with hTg on day 0 and boosted on day 7; mice were sacrificed on day 21. For some mice, PC61 (anti-CD25) antibody (ATCC) at 7.5 mg/mL was injected i.p. on day (−4) and day 3 to deplete T regulatory (CD25+) cells and augment the autoimmune response to hTg.
Spleen and draining lymph nodes were collected from mice upon sacrifice. The spleens and draining lymph nodes were harvested in complete RPMI (Corning) supplemented with 10% FBS (Sigma-Aldrich,) and 1 mM sodium pyruvate (Sigma-Aldrich). They were cut and pressed in circular motion using a plunger from a 10 mL syringe. The suspension was filtered through a 100 μm cell strainer twice and centrifuged at 200×g for 10 minutes. The supernatant was discarded. […] The pellet was resuspended in RPMI and the cells were counted and plated. […]
The CFSE-labeled cells were plated at 2×10^5 cells per well in 100 μL of medium (RPMI/10% FBS). […] The results were analyzed using Flowjo (Tree Star, Ashland, Oreg.). The stimulation index was calculated by using the following formula: Stimulation index=[% proliferating lymphocytes (hTg, peptide or mitogen-treated)]/[% proliferating lymphocytes (medium-treated)]. […]

Another experiment concerns HLA-DR2. Kind of experiment: MBP87-99 binding to DR2 expressing cells, flow cytometry (specificity control). The class given is cell-based, human. The settings on record: biotinylated MBP87-99, 24 hours.

Structures are written as SMILES.

Regarding `COc1ccc2cc1Oc1ccc(cc1)C[C@H]1c3c(cc4c(c3Oc3cc5c(cc3OC)CCN(C)[C@@H]5C2)OCO4)CCN1C` [Compound Ia, cepharanthine], the “activation of T-cells of hTg immunized mice by Tg.2098” value in experiment [1] (Tg.2098 20 μg/ml, p=0.0079) is “significantly blocked”. Further, the “activation of T-cells of hTg immunized mice by hTg” value in experiment [1] (hTg 40 μg/mL, p=0.0005) is reported as “significantly blocked”. The “block of MBP87-99 binding to DR2” value in the experiment with HLA-DR2 was “did not block”.

Values taken from patent US11266642B2, “Small molecule inhibitors of HLA-DR3 binding for treating autoimmune thyroiditis” (ICAHN SCHOOL OF MEDICINE AT MOUNT SINAI, priority 2015, dated 2022).
